We go through 10 molecules from US5767113A, “Compounds useful for concurrently activating glucocorticoid-induced response and reducing multidrug resistance” (The Salk Institute For Biological Studies, priority 1995, dated 1998).

Like-named read-outs stand apart in the source and are kept apart here.

One assay deals with CEM/VLB100 cells. Kind of assay: Reversal of vinblastine resistance in the CEM/VLB100 cell line (turbidity at 660 nm). The class given is cell-based, human. As to the method: (§1) Human CEM/VLB100 cells were distributed (5×10^4 cells/ml, 1 ml/well) into multiwell dishes and incubated for 5 days with 30 nM vinblastine and increasing concentrations of test compound, as indicated in the Figure. At the end of the incubation period, the turbidity values (at 660 nm) for each set of cultures were measured and expressed relative to cells that were incubated without test compound. These values represent the ability of test compound, relative to control (i.e., verapamil) to reverse CEM/VLB100 resistance to 30 nM vinblastine, as reflected by the relative amount of cell proliferation under a given set of growth conditions. Each value shown in the Figures is the average of 2 separate determinations.
II. Reversal of Vinblastine Resistance in the CEM/VLB100 Cell Line
as §1, with “The CEM/VLB100 cell line is a derivative of human CEM cells, selected for resistance to vinblastine. This cell line expresses the human MDR1 gene.” for “Human”, “FIG. 2.” for “the Figure.”, “compound” for “compound, relative to control (i.e., verapamil)”, “FIG. 2” for “the Figures”, “determinations. Results are also presented in the second data column of Table 1, wherein the ED50 values reflect the concentration of chemosensitizer that causes the Relative Turbidity value to be reduced by 50%.” for “determinations.”

For assay [1], the system named is murine thymoma W7TB cells. Nature of the assay: Glucocorticoid agonist activity: glucocorticoid-induced apoptosis of murine thymoma W7TB cells (turbidity at 660 nm). The class given is cell-based. To be noted: Mus musculus, 120 h, 5 days, agonist concentration that reduces Relative Turbidity to 50%, read-out: LD50 ^3. As to the method:
FIG. 1 presents the results of an evaluation of the glucocorticoid agonist activity of several steroid analogs. The glucocorticoid-induced apoptosis of murine thymoma W7TB cells was taken as a measure of the agonist activity of steroid analogs. Murine W7TB cells were distributed (5×10^4 cells/ml/well) into multiwell dishes and incubated for 5 days with increasing concentrations of test compound, as indicated in the Figure. At the end of the incubation period, the turbidity values (at 660 nm) for each set of cultures were measured and expressed relative to cells that were incubated without test compound. These values represent the effect of test compound on the relative amount of cell proliferation under a given set of growth conditions. Each value shown in the Figures is the average of 2 separate determinations.
The glucocorticoid agonist activity of several steroid analogs was evaluated by determining the glucocorticoid-induced apoptosis of murine thymoma W7TB cells. Thus, murine W7TB cells were distributed (5×10^4 cells/ml/well) into multiwell dishes and incubated for 5 days with increasing concentrations of test compound, as indicated in FIG. 1. Dichlorisone is 1,4-pregnadiene-9α, 11β-dichloro-17α-21-diol-3,20-dione; "SA 44" is the 3,4-dimethoxy benzoic acid ester of dichlorisone; and "SA 47" is the 4-dimethylamino benzoic acid ester of dichlorisone. "17-DOD" is 17-deoxydexamethasone (i.e., 1,4-pregnadien-9α-fluoro-16αmethyl-11β,21-diol-3,20-dione); "SA 45" is the 4-dimethylamino benzoic acid ester of 17-DOD; and "SA 54" is the N-benzylcarbamate of 17-DOD.
At the end of the incubation period, the turbidity values (at 660 nm) for each set of cultures were measured and expressed relative to cells that were incubated without test compound. These values represent the effect of test compound on the relative amount of cell proliferation under a given set of growth conditions. Each value shown in FIGS. 1A and 1B is the average of 2 separate determinations. Results are also presented in the third data column of Table 1, wherein LD50 values reflect the agonist concentration that causes the Relative Turbidity value to be reduced to 50%.

The test system of the next assay is S7dexΓ -1 cells. Nature of the assay: Reversal of puromycin resistance in the S7dex-1 cell line (turbidity at 660 nm). In kind it is cell-based, murine. The source says: I. Reversal of Puromycin Resistance in the S7dexΓ -1 Cell Line
The S7dexΓ- 1 cell line is a glucocorticoid resistant derivative of the S7CD-5 cell line. It was selected on the basis of its resistance to the glucocorticoid agonist triamcinolone acetonide (5×10^-7 M) from S7CD-5 cells that had been mutagenized with N-methyl-N'-nitro-N-nitrosoguanidine. The apoptic response to glucocorticoid agonists is not elicited in the S7dexΓ -1 cells. Thus, murine S7dexΓ -1 cells were distributed (5×10^4cells/ml, 1 ml/well) into multiwell dishes and incubated for 5 days with 20 μM puromycin and increasing concentrations of test compound. At the end of the incubation period, the turbidity values (at 660 nm) for each set of cultures were measured and expressed relative to cells that were incubated without test compound. These values represent the ability of test compound to reverse S7dexΓ -1 resistance to 20 μM puromycin, as reflected by the relative amount of cell proliferation under a given set of growth conditions. The number of repetitions of each value presented in the first data column of Table 1 are indicated in parenthesis after each entry. In the Table, the ED50 values reflect the concentration of chemosensitizer that causes the Relative Turbidity value to be reduced by 50%.

[2] abbreviates: 5 days with 30 nM vinblastine, chemosensitizer concentration that reduces Relative Turbidity by 50%, read-out: ED50 ^2.
The mark [3] stands for this setting: S7dex1 cells, 5 days with 20 μM puromycin; chemosensitizer concentration that reduces Relative Turbidity by 50%; read-out: ED50 ^1.
Where [4] appears, read: read-out: ED50 ^1; S7dex1 cells, 5 days with 20 μM puromycin; chemosensitizer concentration that reduces Relative Turbidity by 50%.
The mark [5] stands for this setting: read-out: ED50 ^2, 5 days with 30 nM vinblastine, chemosensitizer concentration that reduces Relative Turbidity by 50%.

In the case of `COc1ccc(C(=O)OCC(=O)[C@H]2[C@H](C)C[C@H]3[C@@H]4CCC5=CC(=O)C=C[C@]5(C)[C@@]4(F)[C@@H](O)C[C@@]32C)cc1OC` [SA 43, 1,4-Pregnadien-9α-fluoro-16α-methyl-11β,21-diol-3,20-dione,21-(3 ,4-dimethoxybenzoate)], the IC50 in the assay on CEM/VLB100 cells (setting [2]) came to 1200 nM; in assay [1], 18 nM.
As to `CC(=O)[C@H]1CC[C@H]2[C@@H]3CCC4=CC(=O)CC[C@]4(C)[C@H]3CC[C@]12C` [Progesterone, reference compound], the IC50 in the assay on S7dexΓ -1 cells (setting [3]) is 1600 nM; with CEM/VLB100 cells (setting [2]), over 8000 nM; in assay [1] it was 2400 nM.
In the case of `COc1ccc(CCN(C)CCCC(C#N)(c2ccc(OC)c(OC)c2)C(C)C)cc1OC` (stereo not shown) [Verapainil, verapamil, reference compound], the IC50 turned out to be 760 nM with S7dexΓ -1 cells (setting [4]) and 1300 nM in the assay with CEM/VLB100 cells (setting [5]).
As for `C[C@@H]1C[C@H]2[C@@H]3CCC4=CC(=O)C=C[C@]4(C)[C@@]3(F)[C@@H](O)C[C@]2(C)[C@H]1C(=O)CO` [17-DOD, 1,4-Pregnadien-9α-fluoro-16α-methyl-11β,21-diol-3, 20-dione, reference compound], the IC50 was 2700 nM in the assay on S7dexΓ -1 cells (setting [3]), over 8000 nM with CEM/VLB100 cells (setting [2]) and 5.3 nM in assay [1].
Regarding `C[C@]12C=CC(=O)C=C1CC[C@H]1[C@@H]3CC[C@](O)(C(=O)CO)[C@@]3(C)C[C@H](Cl)[C@@]12Cl` [Dichlorisone, 1,4-pregnadiene-9α,11β-dichloro-17α-21-diol-3,20-dione, reference compound], the IC50 in the assay on S7dexΓ -1 cells (setting [4]) was over 8000 nM; with CEM/VLB100 cells (setting [5]), over 8000 nM; in assay [1], 7.5 nM.
Turning to `CN(C)c1ccc(C(=O)OCC(=O)[C@@]2(O)CC[C@H]3[C@@H]4CCC5=CC(=O)C=C[C@]5(C)[C@@]4(Cl)[C@@H](Cl)C[C@@]32C)cc1` [SA 47, 1,4-Pregnadien-9α,11β-dichloro-17α,21-diol-3,20-dione, 21-(4-dimethylaminogenzoate)], the IC50 with S7dexΓ -1 cells (setting [3]) amounted to 450 nM; in the assay with CEM/VLB100 cells (setting [2]) it was 1100 nM; in assay [1] it was 13 nM.
As for `C[C@@H]1C[C@H]2[C@@H]3CCC4=CC(=O)C=C[C@]4(C)[C@@]3(F)[C@@H](O)C[C@]2(C)[C@H]1C(=O)COC(=O)c1ccc(N(C)C)cc1` [SA 45, 1,4-Pregnadien-9α-fluoro-16αmethyl-11β,21-diol-3 20-dione, 21-(4-dimethylaminobenzoate)], the IC50 in the assay on S7dexΓ -1 cells (setting [3]) amounted to 360 nM; in the assay on CEM/VLB100 cells (setting [2]), 2700 nM; in assay [1], 34 nM.
On the same counts, the results for `C[C@@H]1C[C@H]2[C@@H]3CCC4=CC(=O)C=C[C@]4(C)[C@@]3(F)[C@@H](O)C[C@]2(C)[C@H]1C(=O)COC(=O)NCc1ccccc1` [SA 54, 1,4-Preqnadien-9αfluoro-16αmethyl-11β,21-diol-3 20-dione, 21-(N-benzylcarbamate)] are 420 nM, 1800 nM and 250 nM.
The matching figures for `CC(=O)[C@H]1[C@H](C)C[C@H]2[C@@H]3CCC4=CC(=O)C=C[C@]4(C)[C@@]3(F)[C@@H](O)C[C@@]21C` [SA 50, 1,4-Pregnadien-9αfluoro-16αmethyl-11β-ol-3 20-dione]: 530 nM, over 8000 nM and 9 nM.
The matching figures for `COc1ccc(C(=O)OCC(=O)[C@@]2(O)CC[C@H]3[C@@H]4CCC5=CC(=O)C=C[C@]5(C)[C@@]4(Cl)[C@@H](Cl)C[C@@]32C)cc1OC` [SA 44, 1,4-Pregnadien-9α11β-dichloro-17α,21-diol-3,20-dione, 21-(3,4-dimethoxybenzoate)]: 440 nM, 2500 nM and 14 nM.
